# According to US5563164A, “Phospholipase A2 inhibitors” (Eli Lilly and Company, priority 1995, dated 1996):
# Molecular target: T1, Human Cytosolic PLA2 (Homo sapiens, UniProt P47712)
# T1 sequence (P47712 1-749): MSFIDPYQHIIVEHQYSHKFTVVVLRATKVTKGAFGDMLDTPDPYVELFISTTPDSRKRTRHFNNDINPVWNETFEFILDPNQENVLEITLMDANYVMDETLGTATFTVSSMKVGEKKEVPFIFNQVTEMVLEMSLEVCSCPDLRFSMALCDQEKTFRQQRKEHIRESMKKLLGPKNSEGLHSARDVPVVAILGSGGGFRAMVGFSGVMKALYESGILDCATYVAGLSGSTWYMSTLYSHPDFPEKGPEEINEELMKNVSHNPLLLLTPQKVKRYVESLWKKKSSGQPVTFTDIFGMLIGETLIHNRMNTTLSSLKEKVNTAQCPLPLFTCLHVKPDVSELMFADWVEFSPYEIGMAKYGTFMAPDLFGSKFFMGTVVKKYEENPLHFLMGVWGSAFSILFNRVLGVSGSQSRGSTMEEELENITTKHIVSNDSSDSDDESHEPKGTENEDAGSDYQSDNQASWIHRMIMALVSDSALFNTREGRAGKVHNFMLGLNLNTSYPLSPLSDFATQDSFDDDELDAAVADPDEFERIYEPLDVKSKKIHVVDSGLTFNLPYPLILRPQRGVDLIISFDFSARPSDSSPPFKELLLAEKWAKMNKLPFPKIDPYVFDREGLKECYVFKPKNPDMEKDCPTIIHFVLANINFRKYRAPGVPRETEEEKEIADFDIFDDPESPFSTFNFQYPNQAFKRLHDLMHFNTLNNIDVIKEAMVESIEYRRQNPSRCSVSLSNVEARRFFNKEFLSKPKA
# Assay: Inhibition of Cytosolic Phospholipase A2 (in vitro, [14C]PC/DG sonicated liposomes)
# Type: biochemical
# Conditions: 37° C., 15 minutes, pH 7.5, 1 mM calcium chloride
# Method: The biological activity of the compounds of Formula I was evaluated employing an in vitro assay measuring the ability of these compounds to inhibit the activity of cytosolic phospholipase A2. The assay was performed essentially as described in R. Kramer, et al., Journal of Biological Chemistry, 266:5268-5272 (1991) with the exception that varying amounts of the compound of Formula I were added to the reaction mixture.
# The substrate, sonicated liposomes containing 1-palmitoyl-2[^14 C ]arachidonoyl-sn-glycero-3-phosphocholine ([^14 C]PC, 55 mCi/mmole from NEN Research Products) and sn-1,2-dioleoylglycerol (DG, Avanti Polar Lipids, Birmingham, Ala.) at a molar ratio of 2:1, was prepared as follows. [^14 C]PC (20 nmol, 1×10^6 dpm, 50 μg/ml in toluene/ethanol) and DG (10 nmol, 100 μg/ml in chloroform) were dried under nitrogen. The lipids were dispersed in 1 ml of 150 mM sodium chloride, 50 mM HEPES, pH 7.5 (assay buffer) by sonication at 4° C. with a Microson™ probe-sonicator (Heat Systems Ultrasonics) for 4×15 seconds, with 45 second intervals. Bovine serum albumin (essentially fatty acid free, from a 100 mg/ml stock in water, Sigma) was added to a final concentration of 4 mg/ml. Samples to be assayed for cPLA2 activity were incubated with 50 μl liposomes (0.5 nmol [^14 C]PC, 50,000 dpm containing 0.25 nmol of DG) and varying amounts of the compound of Formula I, in a total volume of 0.2 ml of assay buffer containing 1 mM calcium chloride and 1 mM 2-mercaptoethanol. Incubations were carried out at 37° C. for 15 minutes and terminated by adding 2 ml of Dole's reagent (2-propanol/heptane/0.5 M sulfuric acid, 40:10:1 containing 10 μg/ml of stearic acid).
# After mixing, 1.2 ml of heptane and 1 ml of water were added. The mixtures were briefly vortexed and the upper phase transferred to tubes containing 2 ml of heptane and 150 mg of Bio-Sil (Bio-Rad Laboratories) activated at 130° C. before use. The tubes were thoroughly vortexed and centrifuged (1000×g for 5 minutes). The supernatants were decanted into scintillation vials. After addition of 10 ml of a liquid scintillation cocktail (Ready Protein®, Beckman) radioactivity was counted using a Beckman liquid scintillation counter Model LS 7000. High radioactive counts correlate with enzymatic activity.
# The first column provides the example number of the test inhibitor. The second column provides the concentration of the test compound (in micromolar quantities) which inhibits fifty percent of the activity of cytosolic phospholipase A2.
row,IC50 [µM],Compound
1,39.4,"CCc1cc(-c2ccccc2)c(O)cc1OCCCCCC(C)(C)c1nn[nH]n1 [Example 4, 2-phenyl-4-ethyl-5-[[6-(2H-tetrazol-5-yl)-6-methylheptyl]oxy]phenol]"
2,35,"CCc1cc(-c2ccc(F)cc2)c(O)cc1OCCCCOc1ccccc1CCC(=O)O [Example 9, 3-(2-(4-(2-Ethyl-4-(4-fluorophenyl)-5-hydroxyphenoxy)-5-butyloxy)phenyl)propionic acid]"
3,12,"CCCc1c(OCCCOc2cc(O)c(-c3ccc(F)cc3)cc2CC)cccc1Oc1ccccc1C(=O)O [Example 8, 2-[2-Propyl-3-[3-[2-ethyl-4-(4-fluorophenyl)-5-hydroxyphenoxy]propoxy]phenoxy]benzoic acid]"
4,13,"CCCc1c(OCCCOc2cc(O)c(C(C)=O)cc2CC)ccc2c1OC(C(=O)O)CC2 (centres unmarked) [Example 13, 7-[3-(4-acetyl-2-ethyl-5-hydroxyphenoxy)propoxy]-3,4-dihydro-8-propyl-2H-1-benzopyran-2-carboxylic acid]"
5,28,"CCCc1c(OCCCOc2cc(O)c(OCC)cc2CC)ccc2c1OC(C(=O)O)CC2 (centres unmarked) [Example 12, 3,4-dihydro-8-propyl-7-[3-(2-ethyl-5-hydroxy-4-ethoxy-phenoxy)propoxy]-2H-1-benzopyran-2-carboxylic acid]"
6,17,"CCc1cc(-c2ccc(F)cc2)c(O)cc1OCCCOc1ccccc1CCC(=O)NS(=O)(=O)c1ccccc1 [Example 3, N-Phenylsulfonyl-3-(2-(3-(2-ethyl-4-(4-fluorophenyl)-5-hydroxyphenoxy)propoxy)phenyl)propionamide]"

# The remaining lines, values behind:
row,Compound,IC50 [µM]
1,"CCc1cc(C(C)=O)c(O)cc1OCCCCCC(C)(C)c1nn[nH]n1 [Example 10, 1-[5-ethyl-2-hydroxy-4-[[6-methyl-6-(1H-tetrazol-5-yl)heptyl]oxy]phenyl]ethanone]",43
2,"CCCc1c(OCCCOc2cc(O)c(C(C)=O)cc2CC)cccc1OC(CC)C(=O)O (centres unmarked) [Example 14, 2-[3-[3-(4-acetyl-2-ethyl-5-hydroxyphenoxy)-propoxy)-2-propylphenoxy]butanoic acid]",14
3,"CCc1cc(CC)c(OCCCCCC(C)(C)c2nn[nH]n2)cc1O [Example 11, 2,4-diethyl-5-[[6-methyl-6-(1H-tetrazol-5yl)heptyl]oxy]phenol]",54
4,"CCCc1c(OCCCOc2cc(O)c(-c3ccc(F)cc3)cc2CC)ccc2c1OC(C(=O)O)CC2 (centres unmarked) [Example 6, 8-Propyl-7-[3-[4-(4-fluorophenyl)-2-ethyl-5-hydroxyphenoxy]propoxy]-3,4-dihydro-2H-1-benzopyran-2-carboxylic acid]",9
5,"CCCc1c(OCCCOc2cc(O)c(-c3ccccc3)cc2CC)cccc1OC(C)C(=O)O (centres unmarked) [Example 5, 2-[3-[3-[(5-Ethyl-2-hydroxy[1, 1'-biphenyl]-4-yl)oxy]propoxy]-2-propylphenoxy]propanoic acid]",12
6,"CCc1cc(-c2ccc(F)cc2)c(O)cc1OCCCOc1ccccc1CCC(=O)NS(C)(=O)=O [Example 2, N-Methanesulfonyl-3-(2-(3-(2-ethyl-4-(4-fluorophenyl)-5-hydroxyphenoxy)propoxy)phenyl)propionamide]",18

# Test system: neuronal cells
# Assay: not given
# Conditions: Neurobiology of Aging 1992; cited from earlier work
row,Compound,direct toxicity (other research groups)
1,"β-amyloid peptide: 4500 Dalton protein, major constituent of amyloid plaque cores; in its longest forms 42 or 43 amino acid residues",unable to consistently demonstrate direct toxicity

# Same assay, conditions: in vitro and in vivo; B. A. Yankner 1989; cited from earlier work
row,Compound,neurotoxicity
1,"β-amyloid peptide: 4500 Dalton protein, major constituent of amyloid plaque cores; in its longest forms 42 or 43 amino acid residues",neurotoxic in vitro and in vivo
